According to a melting point compilation (Tetko et al.; mined from patent text by program, amines drawn as free bases though some values may be those of a salt):

| melting point [°C] | SMILES |
| --- | --- |
| 156 to 158 | CCOCc1nc2c(N)nc3ccccc3c2n1CC1(O)CCCC1 |
| 77 to 80 | COCCNCC(O)c1ccccc1 (stereo not given) |
| 252 to 254 | Cc1cc2c(cc1C1=NNC(=O)CC1)NC(=O)C(C)O2 (stereo not given) |
| 69 to 71 | CCCCC(Cc1ccc(OCCNC(=O)c2ccc(O)nc2)cc1)C(=O)O (stereo not given) |
| 119 to 123 | CCN(CC)CCn1nc2c3c(c(NCCNCCO)ccc31)Sc1c(OC)ccc(OC)c1-2 |
| 165 to 167 | COc1cc(C(=O)N2Cc3ccc(C(=O)NCc4cccnc4)n3Cc3ccccc32)ccc1-c1ccccc1C |
| 126 to 128 | CCc1ccc(C#CC(C)N(O)C(=O)NC)cc1 (stereo not given) |
| 108 to 110 | O=C(NCC12CC3CC(CC(C3)C1)C2)c1cccnc1Sc1cc(O)ccc1O |
| 200 to 202 | OC(CN1CCNC1=S)c1cccnc1 (stereo not given) |
| 165 to 166 | CN(C)CCCC(=O)Nc1nc2c(s1)-c1c(cnn1-c1ccccc1)CC2 |
| 175 to 178 | CC(C)(C)N(NC(=O)c1ccccn1)C(=O)c1ccc(Cl)c(Cl)c1 |
| 167 | ON=C(c1ccc(CN2CCOCC2)cc1)c1cccc2nc(N[C@@H]3CCc4ccccc43)ccc12 |
| 40 | O=[N+]([O-])c1cc(F)cc(I)c1O |
| 182 to 184 | O=C(CCCO)NCc1cccc(Nc2n[nH]c3ncnc(Nc4cccc(Cl)c4)c23)c1 |
| 110 to 112 | CNS(=O)(=O)Cc1ccc(NN=CCSc2ccccc2)cc1 |
| 115 to 116 | CCCCOc1nc(N)c2[nH]c(=O)n(CCCCN(CCCN3CCCC3=O)Cc3cccc(CC(=O)OC)c3)c2n1 |
| 14 to 15 | CON(C)C(=O)Nc1ccc(OCCc2ccc(C(C)(C)C)cc2)cc1 |
| 131 to 133 | COc1cc(S(=O)(=O)N2CCNCC2)cc(OC)c1OC |
| 322 to 324 | Cc1cc(-c2nc3ccccc3[nH]2)n[nH]1 |
| 140 to 141 | Cc1nc(C2CCC(NC(=O)OCC3c4ccccc4-c4ccccc43)CC2)cs1 (stereo not given) |
| 217 | O=C1CCC(c2ccccc2)(c2ccccc2)[C@@H]2CN(C(=O)Cc3ccccc3Br)C[C@H]12 (racemic) |
| 110 | O=c1oc(Oc2ccc(Cl)cc2)nn1-c1ccccc1Cl |
| 266 to 268 | O=c1[nH]ncnc2c1ccc1ncnc12 |
| 132 to 135 | CC(C)(Oc1ccc(Cl)cc1)c1ccnc2ncnn12 |

| melting point [°C] | SMILES |
| --- | --- |
| 125 to 130 | CCOC(=O)C1=C(COCCO)NC(C)=C(C(=O)OC)C1c1ccccc1Cl (stereo not given) |
| 78 to 82 | OCC1OC(n2cnc3c(NCCCCC(c4ccccc4)c4ccccc4)ncnc32)C(O)C1O (stereo not given) |
| 216 | CN1C(=O)N(c2cc(Cl)cc(Cl)c2)C(=O)[C@]12CN(C1CC1)C[C@H]2c1ccc(C#N)cc1 (relative stereo) |
| > 225 | N#Cc1[nH]c(-c2ccc(Cl)cc2)c(C#N)c1Br |
| 325 to 327 | Cn1cc(C(N)=O)c(=O)c2sc(Cl)cc21 |
| 95 to 97 | CCC(Oc1ccccc1C#N)C(=O)OC1CC(O)C=C2C=CC(C)C(CCC3CC(O)CC(=O)O3)C21 (mixture of isomers) |
| 145 to 147 | CCCCCCCCCCNC(=O)Nc1ccc(N(C)C)cc1C(=O)NCC1CCN(C(c2ccccc2)c2ccccc2)CC1 |
| 214 to 215 | CC(C(=O)N1c2ccccc2N(C)C(=O)c2cnc(-c3ccccc3)nc21)N1CCCCC1 (stereo not given) |
| 250 | NS(=O)(=O)c1nnc(NC(=O)c2ccccc2)s1 |
| 116 to 119 | COC1=CCCSC1c1cc(N2C(=O)C3=C(CCCC3)C2=O)ccc1Cl (stereo not given) |
| 99 to 100 | CCOC(=O)c1cnc(SC)nc1NCc1ccc(OC)c([N+](=O)[O-])c1 |
| 63 to 65 | Nc1ccc(S(F)(F)(F)(F)F)cc1 |
| > 330 | CCc1cc2[nH]c(=O)c(=O)[nH]c2c([N+](=O)[O-])c1Cl |
| 202 to 205 | COc1cc2c(cc1OC)CCC(C(=N)NO)=C2 |
| 187 to 189 | COc1ccc2cc(-c3cnc(-c4cn(C)c5ccccc45)o3)ccc2c1 |
| 213 to 215 | COc1cc2nc(Cl)nc(Cl)c2c(OC)c1OC |
| 217 to 219 | COc1cc(OC)c2c(=O)cc(C(C)(C)C(N)=O)oc2c1 |
| 128 to 132 | CC(=O)N(C)C[C@H]1CN(c2ccc(N3CCC(=CC#N)CC3)c(F)c2)C(=O)O1 |
| 123 to 124 | CCCc1nn(-c2ccc(C(F)(F)F)cn2)cc1CCCOc1nn(-c2ccccc2)cc1CC(=O)O |
| 81 to 83 | CCOC(=O)C=Cc1cc(Br)cc(Cc2cccnc2)c1 |
| 136 to 139 | CCCc1c(OCCCOc2ccc(-c3cocn3)c(OC)c2CCC)ccc2c1OC(C(=O)O)CC2 (stereo not given) |
| 122 to 124 | O=c1cc(-c2ccoc2)c2ccc(Sc3cc(F)cc(-c4ccccc4)c3)cc2o1 |
| 187 to 189 | Cc1cc(NC(=O)c2cccc(CSc3ncnc4[nH]ncc34)c2)ccc1C(C)C |
| 130 to 133 | CC(C)(Oc1ccc(CCCOc2ccc(-c3ccccc3)cc2)cc1)C(=O)O |

| melting point [°C] | SMILES |
| --- | --- |
| 135 to 137 | Cc1ccc(C=CC(C#N)=NO)cc1 |
| 162 to 164 | O=C(NCCN1CCNC1=O)Nc1ccccc1 |
| 209 to 210 | CC(=O)NCC1CN(c2ccc(N3CCN(C(=O)CCN4CCOCC4)CC3)c(F)c2)C(=O)O1 (stereo not given) |
| 77 to 79 | Cc1nc2ccccc2n1Cc1ccc(C(=O)NC2CCN(C(=O)OC(C)(C)C)CC2)cc1 |
| 168 to 170 | COCCNc1nc(N)nc(-c2ccccc2)c1-c1ccc(=O)n(C(C)C)n1 |
| 240 to 242 | CCNc1nc2cccc(C(=O)O)c2n1Cc1ccc(-c2ccccc2-c2nnn[nH]2)cc1 |
| 133 to 136 | CC(=O)CCOc1c(-c2ccc(S(C)(=O)=O)cc2)cnn(-c2ccc(F)cc2)c1=O |
| 179 to 181 | OC(CN1CCC(c2noc3cc(F)ccc23)CC1)CN1CCc2ccccc2C1 (stereo not given) |
| 70 to 73 | OC1CSC(Oc2ccccc2-n2ccc3ccccc32)C(O)C1O (stereo not given) |
| 100 to 102 | CC(c1ccc(-c2ccccc2)c(F)c1)c1nc(CC(=O)O)no1 (stereo not given) |
| 76 | CC(=O)SCC(=Cc1ccc2c(c1)OCO2)C(=O)NCCC(=O)OCc1ccccc1 |
| 116 to 118 | CC(=O)OCC1(C)SC2C(NC(=O)Cc3ccccc3)C(=O)N2C1C(=O)OCC(Cl)(Cl)Cl (stereo not given) |
| 200 to 204 | N=C(NS(=O)(=O)c1ccc(F)cc1)C1=NN(c2ccc(Cl)cc2)C(c2ccccc2)C1 (stereo not given) |
| 180 to 183 | O=C1c2sccc2-n2cnc(Cl)c2[C@@H]2CCCN12 |
| 78 to 80 | CCOC(=O)[C@H](Cc1cccc(Oc2ccc3ccccc3c2)c1)NC(=O)C(F)(F)F |
| 135 to 136 | CCN(CC)c1ccc(NC(=O)c2cnn(-c3ccc(F)cc3)c2C)cc1C#N |
| 155 to 158 | CCC1c2cc(OC)c(OC)cc2C(C=Cc2ccc(N)cc2)=NNC1C (stereo not given) |
| 150 to 152 | CC(C)S(=O)(=O)Nc1cc(C(=O)c2ccccc2)ccc1N |
| 136 | O=C(Nc1ccccc1)c1ccc(F)c2c1CC(N(CCCc1c[nH]c3ccc(F)cc13)C1CCC1)CO2 (stereo not given) |
| 63.4 | CC(C)N(CCOC1CCCC2Oc3ccccc3OC12)C(C)C (stereo not given) |
| 84 to 86 | C[C@H](NC(=O)COCCNC(=O)C12CC3CC(CC(C3)C1)C2)C(=O)N[C@H](CCC(=O)O)C(N)=O |
| 167 to 168 | COc1ccc(N2CCN(Cc3n[nH]c4ccccc34)CC2)cc1 |
| 215 to 216 | O=c1c2ccc(OCCCN3CCN(Cc4ccc(Cl)cc4)CC3)cc2oc2nn[nH]c12 |
| 115 to 119 | C=C(CC)C(=O)c1ccc(OC(C)C(=O)O)c(Cl)c1Cl (stereo not given) |

| melting point [°C] | SMILES |
| --- | --- |
| 98 to 100 | CC(=O)S[C@@H]1CCNC1=S |
| 172 to 173 | CC(C)(C)OC(=O)N1CCC2(CC1)CC(c1ccc(C(C)(C)C)cc1)=NO2 |
| 91 to 93 | CCC(COS(C)(=O)=O)Nc1ccc(Cl)cc1[N+](=O)[O-] (stereo not given) |
| 96 to 97 | Cc1ccc(N2CCN(CCC3CN(C)C(=O)O3)CC2)cc1C (stereo not given) |
| 201 to 202 | CSc1nc(N)nc(Cl)c1-c1ccc(Cl)cc1Cl |
| 141 | COC(=O)c1cccc(-c2nnc(-c3ccccc3N)cc2CCCO)c1 |
| 141 to 142 | COc1cccc2c(=O)c(-c3cccc(C(F)(F)F)c3Cl)nn(Cc3ccc(F)cc3F)c12 |
| 222 | C#CCn1c(=O)c2c(nc(C#Cc3ccc(OC)c(OC)c3)n2C)n(CC)c1=O |
| 113 to 115 | COC(=O)C1Cc2c([nH]c3ccccc23)C(c2ccccc2Br)N1C(=O)CCl (stereo not given) |
| 168 to 169 | Cc1oc(-c2ccccc2)nc1CC=Cc1ccc(CC2OC(=O)NC2=O)cc1 (stereo not given) |
| 138 to 140 | CC(=O)Nc1ccc(Sc2cccnc2)cc1 |
| 218 to 221 | N#Cc1cc2c(cc1O)OCC21C(=O)N(CC2CCCO2)c2ccccc21 (stereo not given) |
| 126 to 128 | COC(=O)Cc1coc(-c2cc(C(C)(C)C)c(O)c(C(C)(C)C)c2)n1 |
| 84 to 87 | CCC(C)n1ncn(-c2ccc(N3CCN(c4ccc(OCC(O)(Cn5cncn5)c5ccc(Cl)cc5Cl)cc4)CC3)nc2)c1=O (stereo not given) |
| 106 | COc1ccc(-c2nc(S(=O)(=O)c3ccccc3)[nH]c2-c2ccc(OC)cc2)cc1 |
| 173 to 174 | O=C(Nc1ccc(Cc2nnn[nH]2)cc1)C(F)(F)C(F)(F)C(F)(F)C(F)(F)F |
| 80 | COC(=O)CCCC(N)=O |
| 179 to 181 | Nc1nc(Cl)cnc1-c1cccc(Cl)c1Cl |
| 84 to 86 | COc1cccc2c1CCc1cnoc1-2 |
| 238 to 240 | Nc1nc(N)c2ncn(C3OC(CO)C(O)C3O)c2n1 (stereo not given) |
| 259 to 261 | O=C1Nc2ccccc2C12COc1ccc3c(c12)OCCO3 (stereo not given) |
| 151 to 153 | CC(C#Cc1cccc(OCc2ccccc2)c1)N(O)C(N)=O (stereo not given) |
| 128 to 130 | CC(C)(C)C(=O)c1ccc(C(C)(C)C(=O)O)cc1 |

| SMILES | melting point [°C] |
| --- | --- |
| O=[N+]([O-])N=C(NCc1cnc(Cl)s1)NCc1cnc(Cl)s1 | 217 to 218 |
| O=C1N=C2CCCCN2C12CCNCC2 | 220 |
| CC(=O)C1CCC2C3CC(C)C4CC(O)CCC4(C)C3C(O)CC12C (stereo not given) | 211 to 213 |
| NCCc1ccc(C(N)=O)cc1 | 132 to 133 |
| CC(Cl)OC(=O)c1ncc[nH]1 (stereo not given) | 50 |
